These results are taken from patent US20260317314A1, “NITROGEN-CONTAINING HETEROCYCLIC COMPOUND AND USE THEREOF” (JIANGSU DEYUAN PHARMACEUTICAL CO.,LTD., priority 2023, published 2026).

The structures appear in SMILES notation.

One data set concerns the target T1, human CYP11B2 (Homo sapiens, UniProt P19099).
T1 construct: expressed in transfected cells; host or cells: human renal leiomyoma G402 cell line (monoclonal cells overexpressing human CYP11B2)
T1 sequence (P19099 25-503): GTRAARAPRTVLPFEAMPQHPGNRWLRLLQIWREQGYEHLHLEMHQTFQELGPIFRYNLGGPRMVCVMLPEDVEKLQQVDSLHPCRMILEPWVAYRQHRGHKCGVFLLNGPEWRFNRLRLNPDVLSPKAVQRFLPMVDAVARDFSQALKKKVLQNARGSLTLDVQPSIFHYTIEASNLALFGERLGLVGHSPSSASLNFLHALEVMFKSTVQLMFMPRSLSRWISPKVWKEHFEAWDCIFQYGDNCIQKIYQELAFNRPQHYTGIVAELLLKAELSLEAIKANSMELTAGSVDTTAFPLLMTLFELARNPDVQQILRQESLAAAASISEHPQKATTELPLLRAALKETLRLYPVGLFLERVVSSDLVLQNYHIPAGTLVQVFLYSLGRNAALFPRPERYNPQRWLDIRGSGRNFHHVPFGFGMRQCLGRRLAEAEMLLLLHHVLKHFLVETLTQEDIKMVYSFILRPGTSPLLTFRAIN
The experiment in a line: In vitro activity assay of monoclonal cells overexpressing human CYP11B2. As to conditions: G402 cells overexpressing human CYP11B2; substrate 11-deoxycorticosterone; 16 hours; aldosterone by LCMS/MS. In kind it is cell-based. The procedure:
The human renal leiomyoma G402 cell line overexpressing human CYP11B2 was selected to serve as a compound activity screening system.
• 2) Compound details: The test compound was prepared as a 10 μM working concentration using DMSO.
Day 1: Cells were digested, and human renal leiomyoma G402 cells overexpressing human CYP11B2 were resuspended to 1×10^5 cells/mL, with 100 μL seeded into a 96-well plate.
Day 2: The medium was replaced with DMEM/F12 containing 2.5% charcoal-stripped fetal bovine serum; test compounds were added: 5 μL of test compound was added to the cell culture medium to achieve final concentrations of 10000, 2500, 625, 156.25, 39.06, 9.77, 2.44, 0.61, 0.15, and 0 nM (with a DMSO content of 0.1%).
After one hour, the substrate was added: 30 mM 11-deoxycorticosterone was diluted 1500-fold with culture medium, and 5 μL was dispensed per well to achieve a final concentration of […], followed by incubation for 16 hours.
Day 3: The cell supernatant was collected and added to 200 μL of a methanol solution containing internal standards (internal standards: 35 ng/mL ketoprofen or 7.5 ng/mL carbamazepine or 5 ng/mL diphenhydramine or 10 ng/mL tolbutamide). The mixture was vortexed and centrifuged (4000×g, 4° C., 5 minutes). Then, 100 μL of the supernatant was taken and mixed with 100 μL of pure water. The mixture was centrifuged (4000 g, 4° C., 15 min), and the supernatant was analyzed by ESI-LCMS/MS. • 4) Data analysis:
Ratio=Aldosterone peak area/Internal standard peak area
Control activity %=(Ratio test compound/Ratio DMSO)×100%
“Ratio test compound” represents the Ratio values at different concentrations of the test compound.
“Ratio DMSO” represents the Ratio value without the addition of the test compound. • X=Log (compound concentration) • Y=Control activity %
(§1) The IC50 of the test compound was determined by fitting to a nonlinear regression equation using XLfit 5.5.0.

For the next data set, the target named is T2, human CYP11B1 (Homo sapiens, UniProt P15538).
T2 construct: expressed in transfected cells; host or cells: human renal leiomyoma G402 cell line (monoclonal cells overexpressing human CYP11B1)
T2 sequence (P15538 25-503): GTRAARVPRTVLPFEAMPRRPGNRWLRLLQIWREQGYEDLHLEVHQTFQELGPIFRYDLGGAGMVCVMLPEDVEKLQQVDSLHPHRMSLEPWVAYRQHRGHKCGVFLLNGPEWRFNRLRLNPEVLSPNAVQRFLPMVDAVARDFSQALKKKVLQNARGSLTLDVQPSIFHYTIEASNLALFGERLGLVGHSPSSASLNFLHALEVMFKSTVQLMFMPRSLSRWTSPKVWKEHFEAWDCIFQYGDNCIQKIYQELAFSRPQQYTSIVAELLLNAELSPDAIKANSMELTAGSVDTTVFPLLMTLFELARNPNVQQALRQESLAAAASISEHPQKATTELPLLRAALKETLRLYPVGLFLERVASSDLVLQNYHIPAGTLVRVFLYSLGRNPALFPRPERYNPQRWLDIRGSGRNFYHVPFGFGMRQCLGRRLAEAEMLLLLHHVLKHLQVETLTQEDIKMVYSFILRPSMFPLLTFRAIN
The experiment in a line: In vitro activity assay of monoclonal cells overexpressing human CYP11B1. It is filed as cell-based. As to conditions: G402 cells overexpressing human CYP11B1; substrate 11-deoxycortisol 1 μM; 16 hours. The method, then:
The human renal leiomyoma G402 cell line overexpressing human CYP11B1 was selected to serve as a compound selectivity screening system. Details are as follows: • 1) The cells, reagents, and instrument information were consistent with Experimental Example 1 (activity of monoclonal cells overexpressing human CYP11B2). • 2) Compound details: The test compound was prepared as a […] working concentration using DMSO. • 3) Experimental procedure
Day 1: Cells were digested, and human renal leiomyoma G402 cells overexpressing CYP11B1 were resuspended to 1×10^5 cells/mL, with […] seeded into a 96-well plate.
Day 2: The medium was replaced with DMEM/F12 containing 2.5% charcoal-stripped fetal bovine serum.
After one hour, the substrate was added: 30 mM 11-deoxycortisol was diluted 1500-fold with culture medium, and 5 μL was dispensed per well to achieve a final concentration of 1 μM, followed by incubation for 16 hours.
Day 3: The cell supernatant was collected and added to 200 μL of a methanol solution containing internal standards (internal standards: 35 ng/mL ketoprofen or 7.5 ng/mL carbamazepine or 5 ng/mL diphenhydramine or 10 ng/mL tolbutamide). […] The mixture was centrifuged (4000 g, 4° C., 15 min), and the supernatant was analyzed by ESI-LCMS/MS. • 4) Data analysis: […]
as §1

The nature of data set [1]: In vivo pharmacokinetics study in rats. On the set-up: species or system SD rat. Conditions: rat, plasma, male SD rats, oral 2 mg/kg.
Data set [2] can be described thus: Plasma protein binding rate test, cynomolgus monkey (equilibrium dialysis). Conditions: 37° C., read-out: Plasma protein binding rate (%) in cynomolgus monkeys (converted). It is filed as in vitro ADME. The text has this:
The sample was thoroughly mixed.
Background: In equilibrium dialysis only unbound substance equilibrates across the membrane.

`CCC(=O)N[C@H]1CCOc2c(-c3ccc4c(c3)CCC(=O)N4C)cncc21` (single isomer, unassigned) [Compound 037] returned an IC50 at human CYP11B2 of 14.2 nM. In addition, at human CYP11B1, it took 3470 nM to reach half-maximal inhibition (IC50). Moreover, in data set [1], the bioavailability turned out to be 157%, the half-life is 2.36 h and the Cmax was 8.29 µM. Moreover, in data set [1] (read-out: AUC0-24 h), the AUC(0-t) at 24 h was found to be 49.9 µM·h. Moreover, in data set [2], the fraction unbound at 4 h was 0.451.

As a reminder, the IC50 is the concentration at which inhibition is half-maximal. Usually half-life stands for the time needed for the level to fall by half in the phase considered. In general, Cmax refers to the peak of the concentration-time curve.
